Our source for the IC50 and levels of invasion values is patent US10526309B2, “Pan-TAM inhibitors and Mer/Axl dual inhibitors” (The University of North Carolina at Chapel Hill, priority 2015, dated 2020).

The target in one assay is T1, Mer (Homo sapiens, UniProt Q12866).
T1 sequence (Q12866 21-999): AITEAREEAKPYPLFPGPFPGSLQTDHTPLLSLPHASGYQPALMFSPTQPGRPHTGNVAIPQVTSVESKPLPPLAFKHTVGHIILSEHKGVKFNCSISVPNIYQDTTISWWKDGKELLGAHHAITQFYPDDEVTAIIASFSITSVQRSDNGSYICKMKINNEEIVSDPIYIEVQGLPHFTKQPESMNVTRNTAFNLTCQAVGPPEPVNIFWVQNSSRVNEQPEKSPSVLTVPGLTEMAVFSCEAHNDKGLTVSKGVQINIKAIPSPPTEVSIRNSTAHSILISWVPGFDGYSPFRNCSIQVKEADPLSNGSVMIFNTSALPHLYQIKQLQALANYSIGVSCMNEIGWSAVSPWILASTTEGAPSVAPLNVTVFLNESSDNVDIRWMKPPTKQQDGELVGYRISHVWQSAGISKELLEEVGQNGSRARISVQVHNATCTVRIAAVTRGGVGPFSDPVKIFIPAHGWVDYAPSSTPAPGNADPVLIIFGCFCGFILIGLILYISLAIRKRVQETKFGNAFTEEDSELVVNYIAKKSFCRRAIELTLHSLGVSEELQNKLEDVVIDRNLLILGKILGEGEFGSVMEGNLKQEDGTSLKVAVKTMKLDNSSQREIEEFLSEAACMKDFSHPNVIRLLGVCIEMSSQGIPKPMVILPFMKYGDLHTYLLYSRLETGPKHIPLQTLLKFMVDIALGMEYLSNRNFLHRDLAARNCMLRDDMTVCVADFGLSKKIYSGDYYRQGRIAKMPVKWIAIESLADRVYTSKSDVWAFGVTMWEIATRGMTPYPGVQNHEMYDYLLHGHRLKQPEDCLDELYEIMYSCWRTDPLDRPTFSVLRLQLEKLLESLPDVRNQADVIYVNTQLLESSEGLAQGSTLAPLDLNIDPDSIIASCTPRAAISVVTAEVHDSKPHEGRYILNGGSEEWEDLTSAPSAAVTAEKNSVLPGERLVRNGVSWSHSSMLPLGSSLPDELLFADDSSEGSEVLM
In words: Mer kinase inhibition IC50. The format is biochemical.

In the next assay the target is T2, Axl (Homo sapiens, UniProt P30530).
T2 sequence (P30530 26-894): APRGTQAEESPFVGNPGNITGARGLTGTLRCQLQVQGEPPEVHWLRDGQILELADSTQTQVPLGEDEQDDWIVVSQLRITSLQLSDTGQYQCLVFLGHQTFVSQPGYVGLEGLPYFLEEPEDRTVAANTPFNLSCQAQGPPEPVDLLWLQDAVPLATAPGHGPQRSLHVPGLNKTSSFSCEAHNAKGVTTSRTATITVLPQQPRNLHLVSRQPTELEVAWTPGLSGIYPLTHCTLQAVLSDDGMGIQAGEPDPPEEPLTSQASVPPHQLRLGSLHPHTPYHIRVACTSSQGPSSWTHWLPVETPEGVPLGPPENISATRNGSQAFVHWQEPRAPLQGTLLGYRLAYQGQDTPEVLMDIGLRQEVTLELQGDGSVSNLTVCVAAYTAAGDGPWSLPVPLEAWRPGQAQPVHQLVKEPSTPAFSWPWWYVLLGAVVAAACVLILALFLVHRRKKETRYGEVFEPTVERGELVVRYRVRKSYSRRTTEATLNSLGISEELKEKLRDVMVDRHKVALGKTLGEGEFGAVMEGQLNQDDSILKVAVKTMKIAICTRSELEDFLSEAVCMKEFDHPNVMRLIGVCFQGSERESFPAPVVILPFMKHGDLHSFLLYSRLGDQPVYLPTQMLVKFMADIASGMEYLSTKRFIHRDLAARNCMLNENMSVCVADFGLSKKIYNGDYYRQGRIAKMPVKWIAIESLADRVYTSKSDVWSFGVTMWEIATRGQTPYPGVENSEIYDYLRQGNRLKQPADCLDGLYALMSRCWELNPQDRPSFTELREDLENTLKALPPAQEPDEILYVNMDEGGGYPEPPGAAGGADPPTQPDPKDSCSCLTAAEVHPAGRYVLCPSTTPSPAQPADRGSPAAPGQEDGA
As to the kind of experiment: Axl kinase inhibition IC50. The format is biochemical.

Another assay addresses T3, FLT3 (Homo sapiens, UniProt P36888).
T3 sequence (P36888 27-993): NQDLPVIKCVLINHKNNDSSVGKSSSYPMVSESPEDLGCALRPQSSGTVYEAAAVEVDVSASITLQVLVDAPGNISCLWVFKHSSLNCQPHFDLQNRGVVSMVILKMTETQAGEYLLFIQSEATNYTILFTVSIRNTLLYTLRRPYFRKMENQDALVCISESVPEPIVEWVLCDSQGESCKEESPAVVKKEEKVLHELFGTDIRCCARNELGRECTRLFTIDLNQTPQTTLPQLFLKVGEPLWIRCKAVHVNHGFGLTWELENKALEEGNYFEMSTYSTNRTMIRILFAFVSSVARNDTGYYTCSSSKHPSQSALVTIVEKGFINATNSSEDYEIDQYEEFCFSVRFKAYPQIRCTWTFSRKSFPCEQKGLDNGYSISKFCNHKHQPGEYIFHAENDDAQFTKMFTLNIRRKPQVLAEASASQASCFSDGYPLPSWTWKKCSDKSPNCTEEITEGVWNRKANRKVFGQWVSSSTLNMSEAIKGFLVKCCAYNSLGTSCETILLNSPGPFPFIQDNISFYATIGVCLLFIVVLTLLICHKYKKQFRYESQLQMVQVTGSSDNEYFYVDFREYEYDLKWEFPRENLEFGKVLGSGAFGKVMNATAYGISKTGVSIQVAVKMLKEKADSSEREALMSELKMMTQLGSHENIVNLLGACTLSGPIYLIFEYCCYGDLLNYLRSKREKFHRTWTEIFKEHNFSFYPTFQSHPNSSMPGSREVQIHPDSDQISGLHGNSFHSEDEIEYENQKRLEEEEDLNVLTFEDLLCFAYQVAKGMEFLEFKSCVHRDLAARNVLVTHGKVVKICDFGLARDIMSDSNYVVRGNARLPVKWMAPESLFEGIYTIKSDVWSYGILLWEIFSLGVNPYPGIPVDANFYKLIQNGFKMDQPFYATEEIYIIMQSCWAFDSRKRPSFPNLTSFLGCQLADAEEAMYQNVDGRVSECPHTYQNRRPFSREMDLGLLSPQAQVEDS
In words: FLT3 kinase inhibition IC50. Format: biochemical. Conditions: Example 6.

The next assay concerns MDA-MB-231 cells. In words: Invasion of MDA-MB-231 multicellular tumor spheroids in 3D collagen matrix. Conditions: MDA-MB-231 spheroids, 24 hours in collagen culture; in comparison to UNC1653, UNC2025, UNC2250. Format: cell-based. From the text:
The invasion of triple negative highly aggressive breast adenocarcinoma cells (MDA-MB-231) cultured as multicellular tumor spheroids (MTSs) in a 3D collagen matrix was examined.

SMILES strings stand for the structures. Like-named read-outs stand apart in the source and are kept apart here.

The IC50 is the concentration that inhibits the measured activity by half. For `O[C@H]1CC[C@H](Nc2nc(Nc3ccccc3)ncc2-c2ccc(CN3CCCC3)cn2)CC1` [UNC4198A], the IC50 is 0.98 nM on Mer (Example 6, read-out: MerTK IC50); under 10 nM at Mer (Table 1, read-out: Mer IC50); 5.5 nM on Axl (Example 6); under 10 nM on Axl (Table 1); 0.76 nM at FLT3. Besides, in the assay on MDA-MB-231 cells, the levels of invasion result is recorded as “decreased levels of invasion”.
